Measured values taken from US8158360B2, “Effects of inhibitors of FGFR3 on gene transcription” (priority 2005, dated 2012).

What was measured:
Assay in all cases: Sensitivity of multiple myeloma cell line to CHIR-258 treatment
Type in all cases: cell-based, human
UTMC2 = conditions: UTMC2: Ras WT, FGFR3WT
H929 = conditions: H929: N13 Ras mutant, FGFR3 wild-type (WT)
KMS18 = conditions: KMS18: Ras WT, FGFR3G384D mutant
U266 = conditions: U266: Ras WT, FGFR3 negative
KMS11 = conditions: KMS11: Ras WT, FGFR3Y373C mutant

SMILES: CN1CCN(c2ccc3nc(-c4c(N)c5c(F)cccc5[nH]c4=O)[nH]c3c2)CC1 [CHIR-258, 4-Amino-5-fluoro-3-[6-(4-methylpiperazin-1-yl)-1H-benzimidazol-2-yl]quinolin-2(1H)-one]
- sensitivity of cell line to treatment (UTMC2): resistant
- sensitivity of cell line to treatment (H929): resistant
- sensitivity of cell line to treatment (KMS18): sensitive
- sensitivity of cell line to treatment (U266): resistant
- sensitivity of cell line to treatment (KMS11): sensitive
